Test results from patent US5132111A (priority 1990, dated 1992).

Columns and labels:
[1] = system: secretion of ACTH and β-END-LI
[2] = system: gonadotropes (anterior pituitary cells); format: cell-based, rat
[3] = system: CRF Target Cells (anterior pituitary cells); format: cell-based, rat

| Substance | secretion of ACTH (inhibition) [1] | secretion of β-END-LI (inhibition) [1] | LH-secretory response to GnRH after pretreatment [2] | effect on LH content [2] | ACTH secretion in response to CRF 3 days following pretreatment [3] [times the basal rate] | ACTH-secretory response to subsequent CRF after pretreatment [3] | decrease of ACTH content [3] [%] |
| --- | --- | --- | --- | --- | --- | --- | --- |
| H-IDLTFHLLRNMIEMARNENQREQAGLNRRYLDEV-NH2 [[Arg^36]-Carp Urotensin I(8-41)] | inhibits | inhibits |  |  |  |  |  |
| H-LDLTFHLLREVLEMARAEQLAQQAHSNRRLMEII-NH2 [[Arg^36]-rCRF(8-41)] | inhibits | inhibits |  |  |  |  |  |
| H-LTFHLLREVLEMARAEQLAQQAHSNRRLMEII-NH2 [[Arg^36]-rCRF(10-41)] | inhibits | inhibits |  |  |  |  |  |
| H-Ser-Gln-Glu-Pro-Pro-Ile-Ser-Leu-Asp-Leu-Thr-Phe-His -Leu-Leu-Arg-Glu-Val-Leu-Glu-Met-Thr-Lys-Ala-Asp-Gln -Leu-Ala-Gln-Gln-Ala-His-Ser-Asn-Arg-Lys-Leu-Leu-Asp-Ile-Ala-NH2 [CRF] |  |  | no effect | neither CRF nor the cytotoxic conjugate has any significant effect on LH content | 3.7 | does not eliminate the ability of the cells to respond | 40 |
